Experiment [1] deals with ROCK-II (h, amino acids 11-552) (Homo sapiens (Human), UniProt O75116). As to the kind of experiment: ROCK-II (h) inhibition assay. In kind it is biochemical. The following applies: read-out: ROCK2 IC50. As to the method:
ROCK-II (h) Inhibition Assay:
In a final reaction volume of 25 μL, ROCK-II (h, amino acids 11-552) (5-10 mU) was incubated with 50 mM Tris pH 7.5, 0.1 mM EGTA, 30 [μM […], 10 mM magnesium acetate and γ-^32P-ATP] (specific activity approx. 500 cpm/pmol, concentration as required). The reaction was initiated by the addition of the MgATP mix. After incubation for 40 minutes at room temperature, the reaction was stopped by the addition of 5 μL of a 3% phosphoric acid solution. 10 μL of the reaction was then spotted onto a P30 filter-mat and washed three times for 5 minutes in 75 mM phosphoric acid and once in methanol prior to drying and scintillation counting.

Experiment [2] has as its target ROCK-I (h, amino acids 17-535) (Homo sapiens (Human), UniProt Q13464). Kind of experiment: ROCK-I (h) inhibition assay. Type of experiment: biochemical. The following applies: read-out: ROCK1 IC50. As to the method: ROCK-I (h) Inhibition Assay:
In a final reaction volume of 25 μL, ROCK-I (h, amino acids 17-535) (5-10 mU) was incubated with 8 mM MOPS pH 7.0, 0.2 mM EDTA, 30 μM […], 10 mM magnesium acetate and [γ-^32P-ATP] (specific activity approx. 500 cpm/pmol, concentration as required). The reaction was initiated by the addition of the MgATP mix. After incubation for 40 minutes at room temperature, the reaction was stopped by the addition of 5 μL of a 3% phosphoric acid solution. 10 μL of the reaction was then spotted onto a P30 filtermat and washed three times for 5 minutes in 75 mM phosphoric acid and once in methanol prior to drying and scintillation counting.

The structures appear in SMILES notation. pIC50: −log10 of the molar value.

Consider five compounds from patent publication US8815845B2, “1,4-benzodiazepine-2,5-diones and related compounds with therapeutic properties” (The Regents of the University of Michigan, priority 2009, dated 2014).

Chain of ROCK-II (h, amino acids 11-552) (O75116 11-552): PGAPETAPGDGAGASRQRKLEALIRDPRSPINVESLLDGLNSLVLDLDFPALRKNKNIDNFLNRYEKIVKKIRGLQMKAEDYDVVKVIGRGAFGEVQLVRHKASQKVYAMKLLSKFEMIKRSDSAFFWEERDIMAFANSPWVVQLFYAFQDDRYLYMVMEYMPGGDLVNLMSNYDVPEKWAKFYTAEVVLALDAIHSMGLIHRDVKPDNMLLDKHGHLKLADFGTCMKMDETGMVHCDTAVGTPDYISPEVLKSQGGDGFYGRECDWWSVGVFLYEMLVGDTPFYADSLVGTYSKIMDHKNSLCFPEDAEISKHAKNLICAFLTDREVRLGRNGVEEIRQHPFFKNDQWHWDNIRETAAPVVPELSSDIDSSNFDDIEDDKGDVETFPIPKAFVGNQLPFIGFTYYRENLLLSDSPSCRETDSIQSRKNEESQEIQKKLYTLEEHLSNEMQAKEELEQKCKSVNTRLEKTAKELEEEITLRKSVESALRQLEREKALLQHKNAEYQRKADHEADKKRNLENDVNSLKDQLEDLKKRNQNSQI
Chain of ROCK-I (h, amino acids 17-535) (Q13464 17-535): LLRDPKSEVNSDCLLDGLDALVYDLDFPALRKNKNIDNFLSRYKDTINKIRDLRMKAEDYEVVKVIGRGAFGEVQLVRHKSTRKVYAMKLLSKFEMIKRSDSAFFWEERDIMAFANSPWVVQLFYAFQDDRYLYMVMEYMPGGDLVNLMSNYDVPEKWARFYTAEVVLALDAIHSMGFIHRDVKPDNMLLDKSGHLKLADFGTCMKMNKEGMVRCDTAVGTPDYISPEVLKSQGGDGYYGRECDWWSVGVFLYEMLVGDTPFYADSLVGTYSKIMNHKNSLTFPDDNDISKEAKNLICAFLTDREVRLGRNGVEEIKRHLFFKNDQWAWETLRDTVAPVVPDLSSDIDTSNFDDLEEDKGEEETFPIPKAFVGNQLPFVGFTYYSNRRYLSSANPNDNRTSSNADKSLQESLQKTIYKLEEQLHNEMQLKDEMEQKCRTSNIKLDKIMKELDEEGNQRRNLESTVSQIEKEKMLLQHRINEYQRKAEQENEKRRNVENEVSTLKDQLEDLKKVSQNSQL

Usually pIC50 stands for the negative decadic logarithm of the IC50, by convention in mol/L. Take `COc1ccc2c(c1)C(=O)N[C@@H](Cc1ccc(-c3ccnc(N)c3)cc1)C(=O)N2C` [Compound 3, (S)-3-(4-(2-aminopyridin-4-yl)benzyl)-7-methoxy-1-methyl-3,4-dihydro-1H-benzo[e][1,4]diazepine-2,5-dione]: the pIC50 in experiment [1] was 5.62; in experiment [2], < 5.00.
The corresponding values for `CN1C(=O)[C@H](Cc2ccc(-c3ccnc4[nH]ccc34)cc2)NC(=O)c2cc(Cl)ccc21` [Compound 4, (S)-3-(4-(1H-pyrrolo[2,3-b]pyridin-4-yl)benzyl)-7-chloro-1-methyl-3,4-dihydro-1H-benzo[e][1,4]diazepine-2,5-dione] are 6.60 and 5.29.
In the case of `CN1C(=O)[C@@H](Cc2ccc(-c3cn[nH]c3)cc2)NC(=O)c2cc(Cl)ccc21` [Compound 1, (R)-3-(4-(1H-pyrazol-4-yl)benzyl)-7-chloro-1-methyl-3,4-dihydro-1H-benzo[e][1,4]diazepine-2,5-dione], the pIC50 in experiment [1] was 6.00; in experiment [2], < 4.52.
The matching figures for `CN1C(=O)[C@@H](Cc2ccc(-c3ccnc(N)c3)cc2)NC(=O)c2cc(Cl)ccc21` [Compound 2, (R)-3-(4-(2-aminopyridin-4-yl)benzyl)-7-chloro-1-methyl-3,4-dihydro-1H-benzo[e][1,4]diazepine-2,5-dione]: 5.15 and < 5.00.
The matching figures for `COc1ccc2c(c1)C(=O)N[C@@H](Cc1ccc(-c3ccnc4[nH]ccc34)cc1)C(=O)N2C` [Compound 5, (S)-3-(4-(1H-pyrrolo[2,3-b]pyridin-4-yl)benzyl)-7-methoxy-1-methyl-3,4-dihydro-1H-benzo[e][1,4]diazepine-2,5-dione]: 6.70 and 5.55.
